Publication PMC8260761, “A bacteriocin-based treatment option for Staphylococcus haemolyticus biofilms” (Scientific Reports, 2021)

Legend:
Experiment in all cases: Spot-on-lawn inhibition assay
Assay type in all cases: cell-based
L. gelidum = tested on: L. gelidum; set-up: key: “-“ = No inhibition; “+” = Unclear zone; “++” = zone < 1 cm; “+++”= zone > 1 cm; details: L. gelidum LMG 2386; 5 µl at 1 mg/ml; n=3
Description: (§1) A semi-quantitative spot-on-lawn inhibitory assay was performed on 51 bacterial indicator strains (Table S1) to determine the bacteriocins inhibition spectra. Overnight cultures were diluted 1:100 in BHI soft agar and distributed on BHI agar plates. Once solidified, bacteriocins with various concentrations were applied on designated spots. The plates were incubated at appropriate temperature O/N and inhibition zones were measured the following day. To determine minimal inhibitory concentration (MIC50) of H1 against clinical S. haemolyticus isolates (Table S2), as well as strains heterologously expressing RseP (Table S4), the microtiterplate antimicrobial assay was performed as previously described[41],[79]. MIC50 was defined as the minimal bacteriocin concentration needs to inhibit the growth of a bacterial strain by at least 50%.

Staphylococcus arlettae [1] = tested on: Staphylococcus arlettae; set-up: key: “-“ = No inhibition; “+” = Unclear zone; “++” = zone < 1 cm; “+++”= zone > 1 cm; details: Staphylococcus arlettae LMG 4134; 5 µl at 1 mg/ml; n=3
Description: as §1

S. thermophilus = tested on: S. thermophilus; set-up: key: “-“ = No inhibition; “+” = Unclear zone; “++” = zone < 1 cm; “+++”= zone > 1 cm; details: S. thermophilus Sfi13; 5 µl at 1 mg/ml; n=3
Description: as §1

L. lactis = tested on: L. lactis; set-up: key: “-“ = No inhibition; “+” = Unclear zone; “++” = zone < 1 cm; “+++”= zone > 1 cm; details: 5 µl at 1 mg/ml, n=3
Description: as §1

S. simulans = tested on: S. simulans; set-up: key: “-“ = No inhibition; “+” = Unclear zone; “++” = zone < 1 cm; “+++”= zone > 1 cm; details: S. simulans LMG 3233; 5 µl at 1 mg/ml; n=3
Description: as §1

S. aureus [2] = tested on: S. aureus; set-up: key: “-“ = No inhibition; “+” = Unclear zone; “++” = zone < 1 cm; “+++”= zone > 1 cm; details: 5 µl at 1 mg/ml, n=3
Description: as §1

L. innocua = tested on: L. innocua; set-up: key: “-“ = No inhibition; “+” = Unclear zone; “++” = zone < 1 cm; “+++”= zone > 1 cm; details: 5 µl at 1 mg/ml, n=3
Description: as §1

S. epidermidis [3] = tested on: S. epidermidis; set-up: key: “-“ = No inhibition; “+” = Unclear zone; “++” = zone < 1 cm; “+++”= zone > 1 cm; details: S. epidermidis LMG 3522; 5 µl at 1 mg/ml; n=3
Description: as §1

L. sakei = tested on: L. sakei; set-up: key: “-“ = No inhibition; “+” = Unclear zone; “++” = zone < 1 cm; “+++”= zone > 1 cm; details: 5 µl at 1 mg/ml, n=3
Description: as §1

[4] = tested on: Streptococcus dysgalactiae; set-up: key: “-“ = No inhibition; “+” = Unclear zone; “++” = zone < 1 cm; “+++”= zone > 1 cm; details: Streptococcus dysgalactiae 7649-3; 5 µl at 1 mg/ml; n=3
Description: as §1

S. uberis = tested on: S. uberis; set-up: key: –: “−” = No inhibition; “+” = Unclear zone; “++” = zone < 1 cm; “+++” = zone ≥ 1 cm; details: S. uberis 7904-3; 5 µl at 1 mg/ml; n=3
Description: as §1

L. monocytogenes [5] = tested on: L. monocytogenes; set-up: key: –: “−” = No inhibition; “+” = Unclear zone; “++” = zone < 1 cm; “+++” = zone ≥ 1 cm; details: L. monocytogenes EDGe; 5 µl at 1 mg/ml; n=3
Description: as §1

Bacillus cereus [6] = tested on: Bacillus cereus; set-up: key: –: “−” = No inhibition; “+” = Unclear zone; “++” = zone < 1 cm; “+++” = zone ≥ 1 cm; details: 5 µl at 1 mg/ml, n=3
Description: as §1

C. piscicola [7] = tested on: C. piscicola; set-up: key: –: “−” = No inhibition; “+” = Unclear zone; “++” = zone < 1 cm; “+++” = zone ≥ 1 cm; details: C. piscicola LMG 2332; 5 µl at 1 mg/ml; n=3
Description: as §1

Bacillus cereus [8] = tested on: Bacillus cereus; set-up: key: “-“ = No inhibition; “+” = Unclear zone; “++” = zone < 1 cm; “+++”= zone > 1 cm; details: 5 µl at 1 mg/ml, n=3
Description: as §1

C. piscicola [9] = tested on: C. piscicola; set-up: key: “-“ = No inhibition; “+” = Unclear zone; “++” = zone < 1 cm; “+++”= zone > 1 cm; details: C. piscicola LMG 2332; 5 µl at 1 mg/ml; n=3
Description: as §1

Staphylococcus arlettae [10] = tested on: Staphylococcus arlettae; set-up: key: –: “−” = No inhibition; “+” = Unclear zone; “++” = zone < 1 cm; “+++” = zone ≥ 1 cm; details: Staphylococcus arlettae LMG 4134; 5 µl at 1 mg/ml; n=3
Description: as §1

S. aureus [11] = tested on: S. aureus; set-up: key: –: “−” = No inhibition; “+” = Unclear zone; “++” = zone < 1 cm; “+++” = zone ≥ 1 cm; details: 5 µl at 1 mg/ml, n=3
Description: as §1

S. epidermidis [12] = tested on: S. epidermidis; set-up: key: –: “−” = No inhibition; “+” = Unclear zone; “++” = zone < 1 cm; “+++” = zone ≥ 1 cm; details: S. epidermidis LMG 3522; 5 µl at 1 mg/ml; n=3
Description: as §1

L. monocytogenes [13] = details: L. monocytogenes EDGe; 5 µl at 1 mg/ml; n=3
Description: as §1

Row | Sequence | Average inhibition score (L. gelidum) | Average inhibition score (S. thermophilus) | Average inhibition score (L. lactis; L. lactis IL1403) | Average inhibition score (L. lactis; L. lactis LMG 2081) | Average inhibition score (S. simulans) | Average inhibition score (S. aureus [2]; S. aureus ATCC14458) | Average inhibition score (S. aureus [2]; S. aureus LMG 3325) | Average inhibition score (S. aureus [2]; S. aureus LMG 3328) | Average inhibition score (S. aureus [2]; S. aureus LMG 3329) | Average inhibition score (L. innocua; L. innocua LMG 2710) | Average inhibition score (L. innocua; L. innocua LMG 2785) | Average inhibition score (L. sakei; L. sakei 148) | Average inhibition score (L. sakei; L. sakei LMG 2380) | Average inhibition score [4] | further results
1 | MKFKFNPTGTIVKKLTQYEIAWFKNKHGYYPWEIPRC [K1, enterocin K1] | - | - | +++ (“+++”= zone > 1 cm) | - | - | - | - | - | - | ++ (“++” = zone < 1 cm) | +++ (“+++”= zone > 1 cm) | +++ (“+++”= zone > 1 cm) | ++ (“++” = zone < 1 cm) | - | Average inhibition score (Staphylococcus arlettae [1]): -; Average inhibition score (S. aureus [2]; S. aureus LMG 3263): -; Average inhibition score (S. aureus [2]; S. aureus LMG 3326): -; Average inhibition score (S. epidermidis [3]): -; Average inhibition score (S. uberis): +; Average inhibition score (L. monocytogenes [5]): +; Average inhibition score (Bacillus cereus [6]; B. cereus LMG 2711): +; Average inhibition score (Bacillus cereus [6]; B. cereus LMG 2731): +; Average inhibition score (Bacillus cereus [6]; Bacillus cereus LMG 2805): +; Average inhibition score (C. piscicola [7]): +
2 | MLAKIKAMIKKFPNPYTLAAKLTTYEINWYKQQYGRYPWERPVA [EJ97, enterocin EJ97] | - | - | +++ (“+++”= zone > 1 cm) | - | - | - | - | - | - | +++ (“+++”= zone > 1 cm) | - | - | - | - | Average inhibition score (Bacillus cereus [8]; B. cereus LMG 2711): -; Average inhibition score (Bacillus cereus [8]; B. cereus LMG 2731): -; Average inhibition score (Bacillus cereus [8]; Bacillus cereus LMG 2805): -; Average inhibition score (C. piscicola [9]): -; Average inhibition score (Staphylococcus arlettae [10]): +; Average inhibition score (S. aureus [11]; S. aureus LMG 3263): +; Average inhibition score (S. aureus [11]; S. aureus LMG 3326): +; Average inhibition score (S. epidermidis [12]): +; Average inhibition score (L. monocytogenes [13]): +++ (“+++”= zone > 1 cm)
